The values that follow come from patent US20220125944A1, “ANTIBODY-DRUG CONJUGATE AND USE THEREOF” (priority 2019, published 2022).

By IC50 is commonly meant the concentration needed to halve the response being measured.

Like-named read-outs stand apart in the source and are kept apart here.

The test system of one assay is Daudi. In words: Cytotoxicity of linker-drug complex, Daudi. It is filed as cell-based. Conditions: Homo sapiens. The protocol: (§1) The cytotoxicity of the linker-drug complex itself prepared to contain beta-galactosidase was evaluated. Specifically, each of the linker-drug complexes dissolved in DMSO was serially diluted 3× from 200 nM to 30 pM in a medium for cell culture to prepare a sample, and various cancer cell lines were treated with the sample to finally expose the cells to 100 nM to 15 pM the linker-drug complexes. The cells were cultured for 6 days, cell viability was observed using a CCK-8 cell-counting kit and cytotoxicity was evaluated.

Another assay concerns H929. In words: Cytotoxicity of linker-drug complex, H929. It is filed as cell-based. Conditions: Homo sapiens. Here is the method:
as §1

In the next assay the test system is Raji. In words: Cytotoxicity of linker-drug complex, Raji. Type of assay: cell-based. Conditions: Homo sapiens. Here is the method: as §1
Another assay deals with Jeko-1. In words: Cytotoxicity of linker-drug complex, Jeko-1. The conditions noted are these: Homo sapiens. Type of assay: cell-based. Here is the method: as §1
The next assay deals with HCC1954. In words: Cytotoxicity of linker-drug complex, HCC1954. It is filed as cell-based. Conditions: Homo sapiens. The protocol:
as §1

For another assay, the system named is Calu-6. In words: Cytotoxicity of linker-drug complex, Calu-6. It is filed as cell-based. The conditions noted are these: Homo sapiens. The protocol:
as §1

A further assay deals with Mino. In words: Cytotoxicity of linker-drug complex, Mino. It is filed as cell-based. Conditions: Homo sapiens. The protocol:
as §1

The subject of a further assay is NCI-N87. Kind of assay: Cytotoxicity of linker-drug complex, NCI-N87. Conditions: Homo sapiens. It is filed as cell-based. The protocol: as §1
Another assay relates to U266. Kind of assay: Cytotoxicity of linker-drug complex, U266. It is filed as cell-based. Conditions: Homo sapiens. Here is the method: as §1
For a further assay, the system named is JIMT1. In words: Cytotoxicity of linker-drug complex, JIMT1. Type of assay: cell-based. Conditions: Homo sapiens. The protocol:
as §1

In a further assay the test system is OPM-2. Kind of assay: Cytotoxicity of linker-drug complex, OPM-2. Type of assay: cell-based. The conditions noted are these: Homo sapiens. Here is the method:
as §1

For another assay, the system named is jurkat. Kind of assay: Cytotoxicity of linker-drug complex, jurkat. Type of assay: cell-based. Conditions: Homo sapiens. Here is the method:
as §1

A further assay deals with 697. In words: Cytotoxicity of linker-drug complex, 697. It is filed as cell-based. The protocol: as §1
For assay [1], the target named is T1, NaPi2b (UniProt O95436 1-690, limits assumed).
T1 sequence (looked up): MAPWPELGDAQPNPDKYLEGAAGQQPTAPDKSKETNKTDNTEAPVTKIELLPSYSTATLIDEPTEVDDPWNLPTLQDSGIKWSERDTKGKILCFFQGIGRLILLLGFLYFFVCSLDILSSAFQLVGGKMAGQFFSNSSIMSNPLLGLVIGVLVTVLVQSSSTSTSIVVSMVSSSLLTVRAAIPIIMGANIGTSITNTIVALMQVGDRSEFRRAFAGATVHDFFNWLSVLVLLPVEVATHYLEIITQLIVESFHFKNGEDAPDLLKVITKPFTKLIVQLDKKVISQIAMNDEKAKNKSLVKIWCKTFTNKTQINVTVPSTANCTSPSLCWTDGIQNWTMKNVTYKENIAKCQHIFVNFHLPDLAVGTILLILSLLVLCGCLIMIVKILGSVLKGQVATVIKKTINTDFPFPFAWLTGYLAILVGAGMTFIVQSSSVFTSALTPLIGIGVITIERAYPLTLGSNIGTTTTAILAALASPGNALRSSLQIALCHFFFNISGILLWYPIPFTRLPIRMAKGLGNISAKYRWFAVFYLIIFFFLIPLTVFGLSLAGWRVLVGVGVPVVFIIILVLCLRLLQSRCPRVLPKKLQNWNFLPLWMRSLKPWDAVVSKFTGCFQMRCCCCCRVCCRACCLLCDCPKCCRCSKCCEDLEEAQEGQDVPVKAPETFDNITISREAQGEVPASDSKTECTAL
In words: cell-based or functional assay.

For assay [2], the target named is T1, NaPi2b. In words: cell-based or functional assay. This is another data set of the same source.
Another assay concerns the target T2, CLL-1 (UniProt Q5QGZ9 1-265, limits assumed).
T2 sequence (looked up): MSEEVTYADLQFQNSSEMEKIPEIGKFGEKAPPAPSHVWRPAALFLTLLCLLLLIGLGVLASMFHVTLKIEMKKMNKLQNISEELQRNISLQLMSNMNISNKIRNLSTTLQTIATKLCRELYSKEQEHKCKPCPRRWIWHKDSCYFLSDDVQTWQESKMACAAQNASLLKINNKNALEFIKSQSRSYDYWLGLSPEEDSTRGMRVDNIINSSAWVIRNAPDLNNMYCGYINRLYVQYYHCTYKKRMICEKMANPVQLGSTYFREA
In words: cell-based or functional assay.

On to `O=C(CCCCCN1C(=O)C=CC1=O)NCCOc1cc(/C=C/C(=O)N2C[C@@H](CCl)c3c2cc(O[C@@H]2O[C@H](CO)[C@H](O)[C@H](O)[C@H]2O)c2ccccc32)ccc1/C=C/C(=O)N1C[C@@H](CCl)c2c1cc(O[C@@H]1O[C@H](CO)[C@H](O)[C@H](O)[C@H]1O)c1ccccc21` [PD001], for which the IC50 in the assay on Daudi (144 h, read-out: IC50 #1) came to 0.0125 µM; in the assay with Daudi (read-out: IC50 #2) it was 0.00946 µM; with Daudi (read-out: IC50 Mean) it was 0.0109 µM; with H929 (NCI-H929, 144 h, read-out: IC50 #1) it was 0.0203 µM; with H929 (NCI-H929, read-out: IC50 #2) it was 0.0264 µM; in the assay on H929 (NCI-H929, read-out: IC50 Mean), 0.0232 µM. Besides, the IC50 worked out at 0.0308 µM in the assay on Raji (144 h, Burkitt's lymphoma, run #1, 6 days, CCK-8, read-out: IC50 #1); 0.0184 µM with Raji (mean of #1 and #2, read-out: IC50 Mean); 0.011 µM in the assay on Raji (run #2, read-out: IC50 #2); 0.0131 µM in the assay on Jeko-1 (JeKo-1, 144 h, read-out: IC50 #1); 0.0317 µM with Jeko-1 (JeKo-1, read-out: IC50 #2); 0.0204 µM in the assay with Jeko-1 (JeKo-1, read-out: IC50 Mean). In addition, the IC50 with HCC1954 (HCC1954, 144 h, read-out: IC50 #1) worked out at 0.025 µM; in the assay on HCC1954 (HCC1954, read-out: IC50 #2), 0.0164 µM; in the assay with HCC1954 (HCC1954, read-out: IC50 Mean), 0.0203 µM; in the assay with Calu-6 (Calu-6, 144 h, read-out: IC50 #1), 0.0589 µM; with Calu-6 (Calu-6, read-out: IC50 #2) it was 0.0522 µM; with Calu-6 (Calu-6, read-out: IC50 Mean) it was 0.0554 µM. Also, the half-maximal inhibitory concentration (IC50) with Mino (144 h, read-out: IC50 #1) turned out to be 0.00326 µM; in the assay on Mino (144 h, read-out: IC50 #2) it was 0.00234 µM; in the assay on Mino (read-out: IC50 Mean), 0.00276 µM; in the assay with NCI-N87 (NCI-N87, 144 h, read-out: IC50 #1), 0.00806 µM; in the assay on NCI-N87 (NCI-N87, read-out: IC50 #2), 0.00909 µM; in the assay on NCI-N87 (NCI-N87, read-out: IC50 Mean), 0.00856 µM. Besides, the IC50 with U266 (U-266, 144 h, read-out: IC50 #1) is 0.00797 µM; with U266 (U-266, read-out: IC50 #2) it was 0.00561 µM; with U266 (U-266, read-out: IC50 Mean), 0.00669 µM; with JIMT1 (JIMT-1, 144 h, read-out: IC50 #1) it was 0.047 µM; in the assay with JIMT1 (JIMT-1, read-out: IC50 #2), 0.0249 µM; with JIMT1 (JIMT-1, read-out: IC50 Mean) it was 0.0342 µM. For the same molecule, the 50% inhibitory concentration (IC50) came to 0.0262 µM in the assay on OPM-2 (OPM-2, 144 h, read-out: IC50 #1); 0.0256 µM in the assay with OPM-2 (OPM-2, read-out: IC50 #2); 0.0259 µM in the assay on OPM-2 (OPM-2, read-out: IC50 Mean); 0.0145 µM in the assay with jurkat (144 h, read-out: IC50 #1); 0.00112 µM in the assay with jurkat (read-out: IC50 #2); 0.0127 µM with jurkat (read-out: IC50 Mean). The IC50 came to 0.00478 µM in the assay with 697 (144 h, read-out: IC50 #1); 0.00372 µM in the assay on 697 (read-out: IC50 #2); 0.00422 µM with 697 (read-out: IC50 Mean).

B1: D20002 (10H1-PD001) (antibody, human IgG1, kappa, V domains shown)
VH: EVQLVESGGGLVQPGGSLRLSCAASGFSFSDFAMSWVRQAPGKGLEWVATIGRVAFHTYYPDSMKGRFTISRDNSKNTLYLQMNSLRAEDTAVYYCARHRGFDVGHFDFWGQGTLVTVSS
VL: DIQMTQSPSSLSASVGDRVTITCRSSETLVHSSGNTYLEWYQQKPGKAPKLLIYRVSNRFSGVPSRFSGSGSGTDFTLTISSLQPEDFATYYCFQGSFNPLTFGQGTKVEIKR
modifications: linker-drug PD001 conjugated to a cysteine put in place of lysine 149 (Kabat numbering) of the light chain
Consider B1, for which, in the assay with NaPi2b [1], the “IC50 (nM), cytotoxicity on OVCAR3” value stood at 1.5 nM. In addition, in the assay with NaPi2b [2], the “IC50, cytotoxicity on OVCAR-3” value turned out to be 0.00153 µM and the “non-binder/binder ratio on OVCAR-3” value is at least 100.

B2: D20502 (6E7-PD009) (antibody, human IgG1, kappa, V domains shown)
VH: B1 VH
VL: DIQMTQSPSSLSASVGDRVTITCRASQSVSTSSYNYMHWYQQKPGKPPKLLIKYASNLESGVPSRFSGSGSGTDFTLTISSLQPEDFATYYCQHSWEIPLTFGQGTKVEIKR
modifications: linker-drug PD009 conjugated to a cysteine put in place of lysine 149 (Kabat numbering) of the light chain
B2: in the assay with CLL-1, the “IC50 (nM), cytotoxicity on EDL-1 (AML)” value was 0.3 nM.
